Drawing on patent US20260159481A1, “INDOLE DERIVATIVE WITH SUBSTITUENT AND PHARMACEUTICAL USE” (MITOIMMUNE THERAPEUTICS INC., priority 2023, published 2026), this text covers EC50 for 28 molecules.

As usually defined, the EC50 is the concentration that produces a half-maximal response.

This assay relates to cardiac cells (H9C2). In words: Protective effect against t-BHP-induced cell death in cardiac cells (LDH release). It is filed as cell-based. The following applies: Rattus norvegicus, t-BHP 400 PM, 2 hours, read-out: EC50, protective effect against cell death due to t-BHP induction. The protocol:
To confirm a protective effect on cardiac cells, H9C2 cells were seeded at 1.5×10^4 cells/well in a 96-well plate and cultured for 24 hours. The example compounds were diluted to have the final concentration of 0.001, 0.01, 0.03, 0.1, 0.3, 1, 3, 10, and 30 PM, respectively, and then added to different wells, and the resulting cells were cultured for 15 to 20 minutes. Tert-butyl hydroperoxide (t-BHP) was treated to have the final concentration of 400 PM, and the resulting cells were cultured for 2 hours. To confirm the cell death protection effect of each compound, the degree of extracellular secretion of lactate dehydrogenase (LDH) was measured using a cytotoxicity LDH assay kit [Dojindo; CK12]. Briefly, after 2 hours of t-BHP treatment on the cells, 70 μL of the supernatant was taken from the 96-well plate where the cells were cultured and transferred to a new 96-well plate. The assay buffer included in the kit was added at 70 μL/well (equal to that of the sample) and the plate was covered with foil to block light and allowed to react for 15 minutes at room temperature. While observing a color change of each sample, 35 μL/well of a stop solution was added, an absorbance at 490 nm was measured using an iD3 spectrophotometer, and an EC50 value was calculated.
Background: LDH leaks from cells whose membrane has failed.
As to `O=C(NC1CC1)c1cc(NCc2ccccc2)c2[nH]c(-c3ccccc3)cc2c1` [Example 7, 7-(benzylamino)-N-cyclopropyl-2-phenyl-1H-indole-5-carboxamide], the 50% effective concentration (EC50) was no more than 300 nM. With `O=S1(=O)CCN(CCOCc2cc(NC3CCCC3)c3[nH]c(-c4ccccc4)cc3c2)CC1` [Example 43, 4-(2-((7-(cyclopentylamino)-2-phenyl-1H-indol-5-yl)methoxy)ethyl)thiomorpholine 1,1-dioxide], the EC50 is no more than 300 nM. On to `N#CCc1cc(NC2CCOCC2)c2[nH]c(-c3ccccc3)cc2c1` [Example 23, 2-(2-phenyl-7-((tetrahydro-2H-pyran-4-yl)amino)-1H-indol-5-yl)acetonitrile], for which the EC50 was no more than 300 nM. In the case of `OC1CCC(OCCOCc2cc(NC3CCOCC3)c3[nH]c(-c4ccccc4)cc3c2)CC1` (stereo not shown) [Example 38, 4-(2-((2-phenyl-7-((tetrahydro-2H-pyran-4-yl)amino)-1H-indol-5-yl)methoxy)ethoxy)cyclohexan-1-ol] it was greater than 1000 nM. The same measure for `CCNS(=O)(=O)c1cc(NC2CCOCC2)c2[nH]c(-c3ccccc3)cc2c1` [Example 20, N-ethyl-2-phenyl-7-((tetrahydro-2H-pyran-4-yl)amino)-1H-indole-5-sulfonamide]: no more than 300 nM; for `CC(C)(O)COCc1cc(NC2CCOCC2)c2[nH]c(-c3ccccc3)cc2c1` [Example 30, 2-methyl-1-((2-phenyl-7-((tetrahydro-2H-pyran-4-yl)amino)-1H-indol-5-yl)methoxy)propan-2-ol]: no more than 300 nM; for `c1ccc(-c2cc3cc(COCCN4CCSCC4)cc(NC4CCOCC4)c3[nH]2)cc1` [Example 46, 2-phenyl-N-(tetrahydro-2H-pyran-4-yl)-5-((2-thiomorpholinoethoxy)methyl)-1H-indol-7-amine]: no more than 300 nM. On to `CC(C)(O)COCCOCc1cc(NC2CCOCC2)c2[nH]c(-c3ccccc3)cc2c1` [Example 31, 2-methyl-1-(2-((2-phenyl-7-((tetrahydro-2H-pyran-4-yl)amino)-1H-indol-5-yl)methoxy)ethoxy)propan-2-ol], for which the EC50 was no more than 300 nM. The same measure for `CNC(=O)Cc1cc(NC2CCCC2)c2[nH]c(-c3ccccc3)cc2c1` [Example 16, 2-(7-(cyclopentylamino)-2-phenyl-1H-indol-5-yl)-N-methylacetamide]: no more than 300 nM; for `O=C(Cc1cc(NCc2ccccc2)c2[nH]c(-c3ccccc3)cc2c1)Nc1ccccc1` [Example 18, 2-(7-(benzylamino)-2-phenyl-1H-indol-5-yl)-N-phenylacetamide]: 300 to 1000 nM. As to `CNC(=O)Cc1cc(NC2CCOCC2)c2[nH]c(-c3ccccc3)cc2c1` [Example 15, N-methyl-2-(2-phenyl-7-((tetrahydro-2H-pyran-4-yl)amino)-1H-indol-5-yl)acetamide], the EC50 was no more than 300 nM. In the case of `CS(=O)(=O)NCCOCc1cc(NC2CCOCC2)c2[nH]c(-c3ccccc3)cc2c1` [Example 59, N-(2-((2-phenyl-7-((tetrahydro-2H-pyran-4-yl)amino)-1H-indol-5-yl)methoxy)ethyl)methanesulfonamide] it was no more than 300 nM; in that of `CCN(CC)C(=O)c1cc(NCc2ccccc2)c2[nH]c(-c3ccccc3)cc2c1` [Example 3, 7-(benzylamino)-N,N-diethyl-2-phenyl-1H-indole-5-carboxamide], no more than 300 nM.

Turning to `O=C(NC1CC1)c1cc(NC2CCOCC2)c2[nH]c(-c3ccccc3)cc2c1` [Example 6, N-cyclopropyl-2-phenyl-7-((tetrahydro-2H-pyran-4-yl)amino)-1H-indole-5-carboxamide], the EC50 was no more than 300 nM. With `CN(CCOCCO)C(=O)c1cc(NC2CCOCC2)c2[nH]c(-c3ccccc3)cc2c1` [Example 54, N-(2-(2-hydroxyethoxy)ethyl)-N-methyl-2-phenyl-7-((tetrahydro-2H-pyran-4-yl)amino)-1H-indole-5-carboxamide], the EC50 was 300 to 1000 nM. The same measure for `O=C(NC1CC1)c1cc(NC2CCCC2)c2[nH]c(-c3ccccc3)cc2c1` [Example 5, 7-(cyclopentylamino)-N-cyclopropyl-2-phenyl-1H-indole-5-carboxamide]: no more than 300 nM; for `COCCN(C)CCOCc1cc(NC2CCOCC2)c2[nH]c(-c3ccccc3)cc2c1` [Example 61, 5-((2-((2-methoxyethyl)(methyl)amino)ethoxy)methyl)-2-phenyl-N-(tetrahydro-2H-pyran-4-yl)-1H-indol-7-amine]: no more than 300 nM. For the molecule `O=C(Nc1ccccc1)c1cc(NC2CCOCC2)c2[nH]c(-c3ccccc3)cc2c1` [Example 9, N,2-diphenyl-7-((tetrahydro-2H-pyran-4-yl)amino)-1H-indole-5-carboxamide], the EC50 lay in the range of 300 to 1000 nM. The same measure for `COCCOCCN(C)Cc1cc(NC2CCOCC2)c2[nH]c(-c3ccccc3)cc2c1` [Example 58, 5-(((2-(2-methoxyethoxy)ethyl)(methyl)amino)methyl)-2-phenyl-N-(tetrahydro-2H-pyran-4-yl)-1H-indol-7-amine]: no more than 300 nM; for `OCCOCCc1cc(NC2CCOCC2)c2[nH]c(-c3ccccc3)cc2c1` [Example 33, 2-(2-(2-phenyl-7-((tetrahydro-2H-pyran-4-yl)amino)-1H-indol-5-yl)ethoxy)ethan-1-ol]: no more than 300 nM. In the case of `O=C(Cc1cc(NC2CCOCC2)c2[nH]c(-c3ccccc3)cc2c1)Nc1ccccc1` [Example 19, N-phenyl-2-(2-phenyl-7-((tetrahydro-2H-pyran-4-yl)amino)-1H-indo1-5-yl)acetamide] it was no more than 300 nM; in that of `c1ccc(-c2cc3cc(COCCN4CCOCC4)cc(NC4CCOCC4)c3[nH]2)cc1` [Example 42, 5-((2-morpholinoethoxy)methyl)-2-phenyl-N-(tetrahydro-2H-pyran-4-yl)-1H-indol-7-amine], no more than 300 nM. In the case of `COCCNCc1cc(NC2CCOCC2)c2[nH]c(-c3ccccc3)cc2c1` [Example 50, 5-(((2-methoxyethyl)amino)methyl)-2-phenyl-N-(tetrahydro-2H-pyran-4-yl)-1H-indol-7-amine] it was no more than 300 nM. On to `CCNS(=O)(=O)c1cc(NCc2ccccc2)c2[nH]c(-c3ccccc3)cc2c1` [Example 21, 7-(benzylamino)-N-ethyl-2-phenyl-1H-indole-5-sulfonamide], for which the EC50 was greater than 1000 nM.

For the molecule `OC1CCC(OCc2cc(NC3CCOCC3)c3[nH]c(-c4ccccc4)cc3c2)CC1` (stereo not shown) [Example 35, 4-((2-phenyl-7-((tetrahydro-2H-pyran-4-yl)amino)-1H-indol-5-yl)methoxy)cyclohexan-1-ol], the EC50 was no more than 300 nM. For `CCN(CC)C(=O)Cc1cc(NC2CCCC2)c2[nH]c(-c3ccccc3)cc2c1` [Example 11, 2-(7-(cyclopentylamino)-2-phenyl-1H-indol-5-yl)-N,N-diethylacetamide], the EC50 fell in the range of 300 to 1000 nM.

As for `OCCOCc1cc(NC2CCCC2)c2[nH]c(-c3ccccc3)cc2c1` [Example 26, 2-((7-(cyclopentylamino)-2-phenyl-1H-indol-5-yl)methoxy)ethan-1-ol], the EC50 is no more than 300 nM.

`COCCNC(=O)c1cc(NC2CCOCC2)c2[nH]c(-c3ccccc3)cc2c1` [Example 49, N-(2-methoxyethyl)-2-phenyl-7-((tetrahydro-2H-pyran-4-yl)amino)-1H-indol-5-carboxamide]: the EC50 is no more than 300 nM.
